Measured values reported in PMC3023143 (Nature, 2011).

How the values were obtained:
[1] = system: β1AR-m23; experiment: Ligand efficacy at β1AR-m23; format: cell-based, turkey (Meleagris gallopavo); details: β1AR-m23, Supplementary Table 3
[2] = system: human β1AR; details: no reference given; cited from earlier work

CC(CCc1ccc(O)cc1)NCCc1ccc(O)c(O)c1 (centres unmarked) [Dobutamine, dobutamine]
ligand efficacy class [1]: partial agonists
ligand efficacy class [2]: partial agonists
